Where two headings read alike, the source gives them in different places.
Key:
CYP1A2 metabolism [1] = target: T1, CYP1A2 metabolism (Homo sapiens, UniProt P05177); conditions: in vivo
T1 sequence (P05177 1-516): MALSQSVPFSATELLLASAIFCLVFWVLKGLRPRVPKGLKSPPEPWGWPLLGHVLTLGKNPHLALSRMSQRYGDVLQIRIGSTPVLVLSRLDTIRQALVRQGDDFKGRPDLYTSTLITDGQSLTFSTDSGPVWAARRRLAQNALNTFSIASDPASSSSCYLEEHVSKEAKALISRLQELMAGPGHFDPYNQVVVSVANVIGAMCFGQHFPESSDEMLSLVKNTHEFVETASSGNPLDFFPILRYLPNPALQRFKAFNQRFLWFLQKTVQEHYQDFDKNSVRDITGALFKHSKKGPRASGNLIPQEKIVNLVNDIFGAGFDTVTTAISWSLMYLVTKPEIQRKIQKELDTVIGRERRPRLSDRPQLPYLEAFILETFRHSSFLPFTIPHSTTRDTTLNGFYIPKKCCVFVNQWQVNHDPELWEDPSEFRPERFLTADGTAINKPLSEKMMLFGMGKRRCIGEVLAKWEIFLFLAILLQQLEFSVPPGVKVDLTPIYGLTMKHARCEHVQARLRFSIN
Method: (§1) A ^13C-methacetin breath test (MBT), which assays CYP1A2 metabolism, for assessing functional liver capacity and its changes over time, was utilized to predict transplant-free survival.
(§2) Method: Eligible patients with ALF or non-acetaminophen (APAP) ALI underwent ^13C-MBT at day 1, 2, 3, 5 and 7 after enrollment, unless discharged, transplanted or died. 75 mg of ^13C-methacetin was administered orally or via a nasogastric tube, and exhaled ^13CO2 measured for up to 60 minutes using the BreathID® (Exalenz Bioscience Ltd., Modi’in, Israel). The percent dose recovery (PDR) peak was determined on day 1 or 2 and correlated with 21-day outcome.

CYP1A2 metabolism [2] = target: T1, CYP1A2 metabolism; experiment: 13C-methacetin breath test (MBT), PDR-peak in ALF/ALI patients
Method: as §1, §2

[3] = human, in vivo

CC(=O)Nc1ccc(O[13CH3])cc1 [^13C-methacetin]
mean serial PDR-peaks, TFS vs non-TFS (CYP1A2 metabolism [1]): consistently higher
serial PDR peak results (CYP1A2 metabolism [1]): very low PDR-peak during the entire period
AUROC of PDR-peak as predictor of 21-day transplant free survival (CYP1A2 metabolism [2]; 42 ALF patients, Day 1 or 2 PDR-peak values): 0.82 (95% CI 0.68-0.96)
AUROC of PDR-peak as predictor of 21-day transplant free survival (CYP1A2 metabolism [2]; 42 ALF patients, combined with the ALFSG prognostic index): 0.93
AUROC of PDR-peak as predictor of 21-day transplant free survival (CYP1A2 metabolism [2]; 42 ALF patients, with inclusion of ALF etiology): 0.89 (95% CI 0.79-0.98)
AUROC of PDR-peak as predictor of 21-day transplant free survival (CYP1A2 metabolism [2]; 56 ALF and ALI patients, day 1 or 2 measures): 0.88 (95% CI 0.79-0.97)
AUROC of PDR-peak as predictor of 21-day transplant free survival (CYP1A2 metabolism [2]; 56 ALF and ALI patients, with inclusion of the etiology of ALI/ALF): 0.92 (95% CI 0.85-0.99)
serial PDR peak results (CYP1A2 metabolism [2]; ALF DILI patient who survived without transplant, FIG. 6): improved from day 2 through day 7
day 1 or 2 mean PDR-peak (CYP1A2 metabolism [2]; transplant-free survivors (TFS), 75 mg orally or via nasogastric tube, exhaled 13CO2 up to 60 minutes): 9.2 %/h
de-novo or worsening serum cysteine-APAP protein adduct levels on serial testing [3]: None of the first 20 patients
serious adverse events attributable to test device or substrate [3]: no serious adverse events
